Measurements: publication PMC11859264, “Discovery of a Novel Multitarget Analgesic Through an In Vivo-Guided Approach” (Pharmaceuticals, 2025)

Assays:
[1] = tested on: formalin model; test: Formalin test in mice (primary in vivo screening and ED50); parameters: species or system ICR male mice
Method: For primary screening, the synthesized compounds were administered to mice via intraperitoneal injection at a dose of 5 mg/kg using the formalin model. The percentage inhibition in the second phase, relative to the vehicle control (DMSO/cremophor EL/distilled water = 10:10:80), was calculated.
Each compound was assessed using four doses (0.1, 1, 5, and 10 mg/kg) by intraperitoneal injection.
ICR male mice weighing 23–25 g was purchased from Samtako Korea (Osan, Republic of Korea). ICR mice were housed four per cage in a room with 12 h light–dark cycles. The temperature and relative humidity of the room were maintained at 22 ± 2 °C and 50 ± 5%, respectively. Food and water were available ad libitum. The procedures for animal testing were approved by Medifron Animal Care and Use Committees (Approval number; Medifron 2019-9). Efforts were made to minimize animal suffering and to reduce the number of animals used.
Mice were randomly assigned to five groups (four per group) and single-dose drugs were administered by intraperitoneal injection. The formalin-induced licking paw test was modified from the method described by Dubuisson and Dennis. Each mouse was acclimated to an acrylic observation chamber for at least 30 min before the injection of formalin. Twenty microliters of 2% formalin were injected subcutaneously into the right side of the hind paw. Each mouse was then placed in an individual clear plastic observational chamber (15 × 15 × 15 cm, volume = […] or 3.375 L), and the pain response was recorded for a period of 30 min. The summation of time (in seconds) spent in licking and biting responses of the injected paw during each 5 min block was measured as an indicator of the pain response. The first period (early phase) was recorded 0–5 min after the injection of formalin, and the second period (late phase) was recorded 20–30 min after the injection. The test compound was administered intraperitoneally 30 min before the formalin injection at […]: 0.1, 1, 5, and 10 mg/kg. The vehicle was DMSO/Cremophor EL/distilled water (10/10/80). The data were expressed as the mean ± standard error of the mean (SEM). Statistical analysis was assessed by one-way analysis of variance (ANOVA) with Bonferroni’s post hoc test. Statistical significance was set at p-value < 0.05, with values of p <0.001 considered highly significant.

[2] = target: T1, Transporter, Norepinephrine (NET) (Homo sapiens, UniProt P23975); test: Radioligand binding, [125I] RTI-55, Eurofins
T1 construct: host or cells: MDCK cells
T1 sequence (P23975 whole entry): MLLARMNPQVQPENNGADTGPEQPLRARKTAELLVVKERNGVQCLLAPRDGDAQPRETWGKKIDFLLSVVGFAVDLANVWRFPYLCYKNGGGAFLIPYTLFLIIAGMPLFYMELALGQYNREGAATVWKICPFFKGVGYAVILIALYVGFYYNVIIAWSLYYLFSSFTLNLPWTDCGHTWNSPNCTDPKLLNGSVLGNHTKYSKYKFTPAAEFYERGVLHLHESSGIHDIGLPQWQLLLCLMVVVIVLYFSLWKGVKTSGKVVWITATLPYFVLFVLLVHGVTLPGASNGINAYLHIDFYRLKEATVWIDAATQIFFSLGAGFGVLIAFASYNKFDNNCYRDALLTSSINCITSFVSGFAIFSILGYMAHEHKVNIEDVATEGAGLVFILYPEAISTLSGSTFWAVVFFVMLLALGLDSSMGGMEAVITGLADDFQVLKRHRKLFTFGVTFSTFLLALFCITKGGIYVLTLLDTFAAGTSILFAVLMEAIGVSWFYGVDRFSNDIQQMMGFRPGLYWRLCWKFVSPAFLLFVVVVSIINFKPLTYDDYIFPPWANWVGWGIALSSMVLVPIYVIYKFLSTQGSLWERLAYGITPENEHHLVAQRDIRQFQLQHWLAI

[3] = target: Serotonin 5-HT2A (Homo sapiens, UniProt P28223); test: Radioligand binding, [3H] Ketanserin, Eurofins
Sequence of Serotonin 5-HT2A (P28223 whole entry): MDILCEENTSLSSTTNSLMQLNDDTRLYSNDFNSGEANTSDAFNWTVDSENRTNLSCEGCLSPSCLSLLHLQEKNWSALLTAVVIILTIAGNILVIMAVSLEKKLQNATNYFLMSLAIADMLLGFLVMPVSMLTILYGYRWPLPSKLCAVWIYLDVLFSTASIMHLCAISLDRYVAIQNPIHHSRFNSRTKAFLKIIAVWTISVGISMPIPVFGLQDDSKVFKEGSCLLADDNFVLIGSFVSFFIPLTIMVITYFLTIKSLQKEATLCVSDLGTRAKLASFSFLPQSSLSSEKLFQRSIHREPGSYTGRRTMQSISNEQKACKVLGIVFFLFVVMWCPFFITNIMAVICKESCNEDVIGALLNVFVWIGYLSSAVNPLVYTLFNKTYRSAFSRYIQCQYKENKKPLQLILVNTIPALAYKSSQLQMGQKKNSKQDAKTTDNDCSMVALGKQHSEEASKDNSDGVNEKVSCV

[4] = In vivo pharmacokinetic study; parameters: species or system Sprague–Dawley rats; conditions: rats; for AUC(0-inf) / AUC(0-t) / CL/F / Cmax / Tmax / half-life: male, Sprague-Dawley, rat, plasma
Method: The in vivo pharmacokinetics parameters of compound 29 were measured in rats over 24 h following intraperitoneal (IP) and oral (PO) administration (Figure 4). These experiments were conducted to evaluate the compound’s absorption, distribution, metabolism, and excretion profiles under different routes of administration. Male Sprague–Dawley rats (n = 3 per group, weight 200–250 g) were fasted overnight but had free access to water. All animal experiments were conducted in accordance with institutional guidelines. For intraperitoneal (IP) administration, compound 29 was dissolved in saline and DMSO, while for oral (PO) administration, the compound was suspended in 0.5% carboxymethyl cellulose (CMC). All solutions were freshly prepared and filtered before administration to ensure homogeneity. Compound 29 was administered at 5 mg/kg via intraperitoneal injection or at 10 mg/kg by oral gavage. […] Blood was collected into EDTA-coated tubes and centrifuged at 2000× g for 10 min at 4 °C to separate plasma. Plasma samples were stored at −80 °C until analysis. Before analysis, plasma samples were thawed on ice, and proteins were precipitated using acetonitrile containing an internal standard. The mixture was centrifuged, and the supernatant was collected for analysis. Plasma concentrations of compound 29 were determined using a validated LC-MS/MS method. […] Quantification was performed in Multiple Reaction Monitoring (MRM) mode using Xcalibur software (version 4.4). Pharmacokinetic parameters, including AUClast, AUCinf, Cmax, Tmax, t1/2, Cl/F, and Vd, were calculated using non-compartmental analysis (NCA) with Phoenix WinNonlin software 8.5.2 (Certara, Radnor, PA, USA).

[5] = tested on: panel of 47 drug target molecules; test: Screening against a panel of pain-related drug targets at 10 μM; assay type: binding
Method: To elucidate the mechanism of action of compound 29 in producing analgesic effects, its inhibitory effects were systematically evaluated through a screening process. The compound was tested at a concentration of 10 μM against a diverse panel of 47 drug target molecules that are closely associated with pain modulation pathways.
The screening of pain-related receptors for the mechanism of action study of compound 29 was conducted by outsourcing the experiment to Eurofins (https://www.eurofins.com, accessed on 30 July 2024). Methods employed in this study have been adapted from the scientific literature to maximize reliability and reproducibility. Reference standards were run as an integral part of each assay to ensure the validity of the results obtained. […] Where presented, IC50 values were determined by a non-linear, least squares regression analysis using MathIQTM (ID Business Solutions Ltd., Woking, Surrey, UK). Where inhibition constants (Ki) are presented, the Ki values were calculated using the equation of Cheng and Prusoff using the observed IC50 of the tested compound, the concentration of radioligand (*) employed in the assay, and the historical values for the KD of the ligand (obtained experimentally at Eurofins Panlabs, Inc.). Where presented, the Hill coefficient (nH), defining the slope of the competitive binding curve, was calculated using MathIQTM.

[6] = target: hERG (Homo sapiens, UniProt Q12809); test: in vitro
Sequence of hERG (Q12809 whole entry): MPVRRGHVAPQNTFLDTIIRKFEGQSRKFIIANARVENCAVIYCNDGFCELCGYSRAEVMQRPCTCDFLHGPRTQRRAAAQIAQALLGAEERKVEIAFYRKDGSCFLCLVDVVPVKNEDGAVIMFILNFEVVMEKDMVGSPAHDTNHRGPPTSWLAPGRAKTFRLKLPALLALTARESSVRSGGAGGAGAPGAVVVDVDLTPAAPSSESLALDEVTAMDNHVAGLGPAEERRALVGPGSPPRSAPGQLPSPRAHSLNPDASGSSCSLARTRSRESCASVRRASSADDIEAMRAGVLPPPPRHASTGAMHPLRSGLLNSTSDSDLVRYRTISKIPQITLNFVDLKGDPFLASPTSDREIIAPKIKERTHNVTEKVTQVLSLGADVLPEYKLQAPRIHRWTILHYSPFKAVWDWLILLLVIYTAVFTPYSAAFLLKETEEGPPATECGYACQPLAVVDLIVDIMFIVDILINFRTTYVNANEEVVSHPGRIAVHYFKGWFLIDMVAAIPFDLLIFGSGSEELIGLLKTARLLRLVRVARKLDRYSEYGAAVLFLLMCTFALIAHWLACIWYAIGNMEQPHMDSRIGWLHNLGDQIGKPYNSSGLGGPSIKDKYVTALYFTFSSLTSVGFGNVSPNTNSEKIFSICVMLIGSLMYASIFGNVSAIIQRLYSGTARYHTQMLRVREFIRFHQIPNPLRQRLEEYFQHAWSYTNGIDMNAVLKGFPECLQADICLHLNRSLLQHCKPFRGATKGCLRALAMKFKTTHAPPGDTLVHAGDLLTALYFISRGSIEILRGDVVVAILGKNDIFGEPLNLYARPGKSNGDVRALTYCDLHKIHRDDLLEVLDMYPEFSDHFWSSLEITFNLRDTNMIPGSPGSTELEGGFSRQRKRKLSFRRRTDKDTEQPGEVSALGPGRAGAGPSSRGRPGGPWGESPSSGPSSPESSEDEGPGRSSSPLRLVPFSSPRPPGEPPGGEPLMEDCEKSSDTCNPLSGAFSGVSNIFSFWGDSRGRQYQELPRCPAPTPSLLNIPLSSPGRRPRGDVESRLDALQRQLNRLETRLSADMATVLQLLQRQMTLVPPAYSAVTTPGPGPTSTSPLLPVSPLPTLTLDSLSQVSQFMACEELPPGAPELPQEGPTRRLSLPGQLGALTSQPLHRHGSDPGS

[7] = target: CYP3A4 (Homo sapiens, UniProt P08684); test: in vitro; conditions: microsomes, pH 7.4
Sequence of CYP3A4 (P08684 whole entry): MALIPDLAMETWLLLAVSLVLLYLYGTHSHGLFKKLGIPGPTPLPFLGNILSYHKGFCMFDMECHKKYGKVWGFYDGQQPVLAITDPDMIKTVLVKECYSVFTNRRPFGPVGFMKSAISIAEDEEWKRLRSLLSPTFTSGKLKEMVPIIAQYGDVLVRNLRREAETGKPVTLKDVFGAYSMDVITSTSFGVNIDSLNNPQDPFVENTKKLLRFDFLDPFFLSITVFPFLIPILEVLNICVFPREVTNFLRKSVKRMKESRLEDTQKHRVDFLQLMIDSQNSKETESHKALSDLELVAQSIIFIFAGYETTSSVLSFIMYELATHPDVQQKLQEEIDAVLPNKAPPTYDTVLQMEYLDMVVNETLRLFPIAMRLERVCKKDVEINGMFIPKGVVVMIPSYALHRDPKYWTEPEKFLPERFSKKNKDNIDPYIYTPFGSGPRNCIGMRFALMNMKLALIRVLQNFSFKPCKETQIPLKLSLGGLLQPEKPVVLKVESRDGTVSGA

In the case of N#Cc1ccc2[nH]cc(C(=O)NCCN3CCN(c4ccc5ccccc5n4)CC3)c2c1 [Compound 29, 5-Cyano-N-(2-(4-(quinolin-2-yl)piperazin-1-yl)ethyl)-1H-indole-3-carboxamide], the ED50 ([1]; Mus musculus, ip, read-out: ED50 in the second phase of the formalin model) is reported as 0.78 mg/kg, the “activity in the first phase of the formalin model” value ([1]; mice, intraperitoneal, first phase) is reported as “relatively weak” and the “nH (Hill coefficient)” value ([2]; NET) is reported as 0.73. For the same compound, the Ki ([2]; NET, Cheng and Prusoff) was 380 nM, the IC50 ([2]; NET, human recombinant MDCK cells) was 380 nM and the “times more potent at NET compared to desipramine” value ([2]; ratio of Ki values) was 3. For the same compound, the “nH (Hill coefficient)” value ([3]; Serotonin 5-HT2A) was 0.88, the Ki ([3]; Serotonin 5-HT2A, Cheng and Prusoff) was 150 nM and the IC50 ([3]; Serotonin 5-HT2A, human recombinant CHO-Ki cells) was 520 nM. For the same compound, the “times the activity of reference compound ketanserin” value ([3]; ratio of Ki values) was 1.53, the AUC(0-inf) ([4]; IP, 5 mg/kg) was 1380 ng·h/mL and the AUC(0-t) ([4]; IP, 5 mg/kg) was 1030 ng·h/mL. For the same compound, the CL/F ([4]; IP, 5 mg/kg) was 64.7 mL/min/kg, the Cmax ([4]; IP, 5 mg/kg) was 208 ng/mL and the Tmax ([4]; IP, 5 mg/kg) was 2.83 h. It also gave a half-life ([4]; IP, 5 mg/kg) of 3.49 h, an AUC(0-inf) ([4]; PO, 10 mg/kg) of 430 ng·h/mL and an AUC(0-t) ([4]; PO, 10 mg/kg) of 407 ng·h/mL. It also gave a CL/F ([4]; PO, 10 mg/kg) of 401 mL/min/kg, a Cmax ([4]; PO, 10 mg/kg) of 113 ng/mL and a Tmax ([4]; PO, 10 mg/kg) of 1.5 h. For the same compound, the half-life ([4]; PO, 10 mg/kg) was 1.67 h, the Vd ([4]; IP, 5 mg/kg) was 17.9 L/kg and the Vd ([4]; PO, 10 mg/kg) was 57.4 L/kg. The “number of targets with more than 50% inhibition” value [5] was 16, the inhibition at 4 h, 10 µM [6] was 52.7% and the inhibition at 15 min, 10 µM [7] was 78%.
